Experimental findings from US10722484B2, “Methods of cancer treatment” (K-Gen, Inc., priority 2016, dated 2020) are described below.

The subject of the experiment is A549 lung cancer cell line. Description: Combination viability/proliferation assays (384-well IC50 ratio, 96-well MacSynergy II). Type of experiment: cell-based. To be noted: for concentration range in which the antagonistic effect was detected / Ratio ([…] DMSO IC50/combination IC50) / Combination in A549: K101A (synergism/antagonism) / Combination in A549: K101E (synergism/antagonism) / Combination in A549: K102 (synergism/antagonism): A549; for concentration range in which the antagonistic effect was detected: with PKC activator compounds (FIG. 10A, 10B), trametinib full range tested, erlotinib lower half of range tested; for effect in combination with the PKC activator compounds in inhibiting the growth of A549 cells: PKC activator compounds (K101A, K101E, K102); for Ratio ([…] DMSO IC50/combination IC50): NC: no change; for Combination in A549: K101A (synergism/antagonism): agent assayed in combination with K101A; for Combination in A549: K101A (synergism/antagonism) / Combination in A549: K102 (synergism/antagonism): * 2-3 concentrations, # full concentration ranges; for Combination in A549: K101E (synergism/antagonism): agent assayed in combination with K101E; for Combination in A549: K102 (synergism/antagonism): agent assayed in combination with K102. The method, then: A 96-well MacSynergy II format for combination test was also used. […] The analysis was done with the SQRT(Data) scale and the four parameter Hill curve was fitted using XLfit5.1 (the MacSynergy II Excel Spreadsheet) for the inhibition data. Synergy (positive number) or Antagonism (negative number) volumes were calculated. […] Three-dimensional MacSynergy II graphs were generated where positive values indicated synergism and negative values indicated antagonism.

Setting [1] is: in combination with 0.0002 μM K102.
The mark [2] stands for this setting: in combination with 0.002 μM K102.
The mark [3] stands for this setting: in combination with 0.005 μM K101A.
[4] abbreviates: in combination with 0.02 μM K102.
Where [5] appears, read: in combination with 0.05 μM K101A.
[6] abbreviates: in combination with 0.5 μM K101A, ratio >2 synergistic, <0.5 antagonistic.

Each structure is given as a SMILES string. Entries after “also recorded” stand apart in the source; their conditions may differ.

Regarding `C#Cc1cccc(Nc2ncnc3cc(OCCOC)c(OCCOC)cc23)c1` [Erlotinib], the “concentration range in which the antagonistic effect was detected” value lay within 0.3 to 2.5 µM and the “effect in combination with the PKC activator compounds in inhibiting the growth of A549 cells” value is listed as “Moderate antagonistic effect”.
`CC(=O)Nc1cccc(-n2c(=O)n(C3CC3)c(=O)c3c(Nc4ccc(I)cc4F)n(C)c(=O)c(C)c32)c1` [Trametinib]: the “concentration range in which the antagonistic effect was detected” value lay within 0.003 to 0.2 µM. Also, the “Ratio ([…] DMSO IC50/combination IC50)” value under setting [1] amounted to 0.72. The “Ratio ([…] DMSO IC50/combination IC50)” value under setting [2] stood at 0.80. Further, under setting [3], the “Ratio ([…] DMSO IC50/combination IC50)” value turned out to be 1.36. The “Ratio ([…] DMSO IC50/combination IC50)” value under setting [4] is 0.44. The “Ratio ([…] DMSO IC50/combination IC50)” value under setting [5] was found to be 1.10. Also, the “Ratio ([…] DMSO IC50/combination IC50)” value under setting [6] is on record as 0.50.
Turning to `Nc1ccn([C@@H]2O[C@H](CO)[C@@H](O)C2(F)F)c(=O)n1` [Gemcitabine], the “effect in combination with the PKC activator compounds in inhibiting the growth of A549 cells” value is given as “insignificant synergism or antagonism”, the “Combination in A549: K101A (synergism/antagonism)” value is listed as “None”, the “Combination in A549: K101E (synergism/antagonism)” value is given as “None” and the “Combination in A549: K102 (synergism/antagonism)” value is recorded as “None”. Also, the “Ratio ([…] DMSO IC50/combination IC50)” value under setting [1] stood at 0.72. In addition, the “Ratio ([…] DMSO IC50/combination IC50)” value under setting [2] was determined as 0.76. The “Ratio ([…] DMSO IC50/combination IC50)” value under setting [3] worked out at 0.80. In addition, the “Ratio ([…] DMSO IC50/combination IC50)” value under setting [4] is reported as 0.69. Further, the “Ratio ([…] DMSO IC50/combination IC50)” value under setting [5] worked out at 0.91. Moreover, under setting [6], the “Ratio ([…] DMSO IC50/combination IC50)” value is on record as 0.97.
`CC(C)C[C@H](NC(=O)[C@H](CCc1ccccc1)NC(=O)CN1CCOCC1)C(=O)N[C@@H](Cc1ccccc1)C(=O)N[C@@H](CC(C)C)C(=O)[C@@]1(C)CO1` [Carfilzomib]: the “effect in combination with the PKC activator compounds in inhibiting the growth of A549 cells” value is on record as “insignificant synergism or antagonism”, the “Combination in A549: K101A (synergism/antagonism)” value is on record as “None” and the “Combination in A549: K102 (synergism/antagonism)” value is “None”.
For `CS(=O)(=O)CCNCc1ccc(-c2ccc3ncnc(Nc4ccc(OCc5cccc(F)c5)c(Cl)c4)c3c2)o1` [Lapatinib], the “effect in combination with the PKC activator compounds in inhibiting the growth of A549 cells” value is “no or insignificant antagonistic effect; also recorded: insignificant synergism or antagonism”.
Consider `Nc1cc(C(F)(F)F)c(-c2cc(N3CCOCC3)nc(N3CCOCC3)n2)cn1` [BKM-120, 5-[2,6-Di(4-morpholinyl)-4-pyrimidinyl]-4-(trifluoromethyl)-2-pyridinamine], for which the “effect in combination with the PKC activator compounds in inhibiting the growth of A549 cells” value is recorded as “strong synergy”, the “Combination in A549: K101A (synergism/antagonism)” value is on record as “Synergism (strong)”, the “Combination in A549: K101E (synergism/antagonism)” value is “None” and the “Combination in A549: K102 (synergism/antagonism)” value is reported as “Synergism (moderate)”. Moreover, under setting [1], the “Ratio ([…] DMSO IC50/combination IC50)” value came out at 0.86. Moreover, the “Ratio ([…] DMSO IC50/combination IC50)” value under setting [2] was 1.24. Besides, the “Ratio ([…] DMSO IC50/combination IC50)” value under setting [3] is reported as 0.94. Further, the “Ratio ([…] DMSO IC50/combination IC50)” value under setting [4] is on record as 2.36. Under setting [5], the “Ratio ([…] DMSO IC50/combination IC50)” value amounted to 1.21. Under setting [6], the “Ratio ([…] DMSO IC50/combination IC50)” value stood at 2.43.
Regarding `O=C1[O][Pt]2([NH][C@@H]3CCCC[C@H]3[NH]2)[O]C1=O` [Oxaliplatin], the “effect in combination with K101A or K102 in inhibiting the growth of A549 cells” value is listed as “synergy”.
As to `Cc1cc(-c2ncc(CC(=O)Nc3ccc(-c4cnccn4)cn3)cc2C)ccn1` [LGK-974, 2-[5-methyl-6-(2-methylpyridin-4-yl)pyridin-3-yl]-N-(5-pyrazin-2-ylpyridin-2-yl)acetamide], the “Combination in A549: K101A (synergism/antagonism)” value was “Synergism (minor)” and the “Combination in A549: K102 (synergism/antagonism)” value was “Synergism (minor)”.
In the case of `CO[C@H]1C[C@@H]2CC[C@@H](C)[C@@](O)(O2)C(=O)C(=O)N2CCCC[C@H]2C(=O)O[C@H]([C@H](C)C[C@@H]2CC[C@@H](OCCO)[C@H](OC)C2)CC(=O)[C@H](C)/C=C(\C)[C@@H](O)[C@@H](OC)C(=O)[C@H](C)C[C@H](C)/C=C/C=C/C=C/1C` [Everolimus], the “effect in combination with the PKC activator compounds in inhibiting the growth of A549 cells” value is reported as “strong synergy”, the “Combination in A549: K101A (synergism/antagonism)” value is recorded as “Synergism”, the “Combination in A549: K101E (synergism/antagonism)” value was “Synergism” and the “Combination in A549: K102 (synergism/antagonism)” value was “Synergism”. Under setting [2], the “Ratio ([…] DMSO IC50/combination IC50)” value is above 2. For the same compound, under setting [4], the “Ratio ([…] DMSO IC50/combination IC50)” value was above 2. Also, the “Ratio ([…] DMSO IC50/combination IC50)” value under setting [5] is recorded as above 2. Under setting [6], the “Ratio ([…] DMSO IC50/combination IC50)” value is above 2. Where the note is “in combination with […] K101E”, the “Ratio ([…] DMSO IC50/combination IC50)” value was above 2.
Regarding `CN[C@@H]1C[C@H]2O[C@@](C)([C@@H]1OC)n1c3ccccc3c3c4c(c5c6ccccc6n2c5c31)C(=O)NC4` [STS, staurosporine], the “effect in combination with the PKC activator compounds in inhibiting the growth of A549 cells” value is reported as “synergistic effects”, the “Combination in A549: K101A (synergism/antagonism)” value is recorded as “Synergism”, the “Combination in A549: K101E (synergism/antagonism)” value was “Synergism” and the “Combination in A549: K102 (synergism/antagonism)” value is recorded as “Synergism”.
